The nature of the data set: In vitro tests of lamellar structure formation. It counts as physicochemical. The settings on record: RMT associated to palmitic acid.

With “ricinoleyl monomaleate triglyceride [RMT]”, the structure formed entry is given as “form a lamellar structure very similar to the lamellar gel structure that is naturally present in healthy skins”.
